Data: US20200323780A1, “BILAYER COMBINATION TABLET FOR ORAL ADMINISTRATION CONTAINING TRAMADOL AND CELECOXIB” (KIMS HEALTHCARE CO., LTD., priority 2017, published 2020)
Values after ≈ are worked out from the molar mass of the structure shown. Like-named read-outs stand apart in the source and are kept apart here.

Legend:
[1] = cited from earlier work
[2] = cited from earlier work; remark: listed apart in the source
[3] = tested on: conditioned place preference; assay: Psychological dependence on tramadol by change in conditioned place preference (CPP); format: in vivo, Sprague-Dawley rats; settings: rats; for Change (min) in the time stayed in non-preferred compartment / Change (min) in the time stayed in preferred compartment: post- vs pre-conditioning, 15 minutes
Procedure: 3. Test for Measuring Psychological Dependence on Tramadol by Assessment of Dependence Potential
In order to measure psychological dependence which is one of the side effects of tramadol, a change in conditioned place preference (CPP) was measured. Conditioned place preference boxes are divided into three boxes, that is, a white box, a black box and a gray box, as shown in FIG. 8. The gray box is a meddle portion in which an animal can choose between the white box and the black box, and the gray box is […]. The black box has a bottom composed of stainless steel rods having a diameter of 4.8 mm and a spacing of 16 mm, and the white box has a bottom composed of stainless steel meshes having a size of 1.25×1.25 cm. The gray box is 12 cm in width, 22 cm in length, and 21 cm in height, and the white box and the black box are 28 cm in width, 21 cm in length, and 21 cm in height.
A series of test procedures are as follows. 5-Week-old male Sprague-Dawley rats (SD rats) were purchased and acclimated for one week. Then, on days 1, 2 and 3 of the test (preconditioning step), in a state in which each rat was not treated with a drug or normal saline for injection, each rat was placed in the gray compartment, and then the door was opened and the time that each rat stayed in each compartment was measured for 15 minutes. Then, based on the mean of the measurement results, the compartment preferred by the rats in the preconditioning step (that is, the compartment in which the rats stayed longer, among the white compartment and the black compartment) was determined.
The next step is a conditioning step corresponding to day 4 to day 11. On days 4, 6, 8 and 10, the corresponding dose of each of the Test Example and the Comparative Examples was administered by intraperitoneal injection to each rat, and after 30 minutes, the rats were adapted to the non-preferred compartment for 30 minutes so as to allow the rats to remember the non-preferred compartment in association with tramadol. On the remaining days 5, 7, 9 and 11, normal saline for injection was administered by intraperitoneal injection to the rats, and after 30 minutes, the rats were adapted to the preferred compartment for 30 minutes so as to allow the rats to remember the preferred compartment in association with the saline solution. On day 12 corresponding to a final step (post-conditioning step), in a state in which neither the drug nor normal saline for injection was administered to the rats, the rats were placed in the gray compartment, and then the door was opened and the time that the rats stayed in each compartment was measured for 15 minutes (see Table 7).
The difference between the time that the rats stayed in the tramadol-associated place (non-preferred compartment) in the post-conditioning step and the time that the rats stayed in the non-preferred compartment in the pre-conditioning step indicates the tramadol-induced change in conditioned place preference, that is, psychological dependence on the drug.
Next, based on the test results, the standardized J-T statistic and the significance level (p-value) were confirmed using a Jonckheere-terpstra test which is a non-parametric statistical method.

[4] = tramadol 2.6 mg/kg intraperitoneal on days 4, 6, 8, 10
[5] = tramadol 3.9 mg/kg intraperitoneal on days 4, 6, 8, 10
[6] = tramadol 10.3 mg/kg intraperitoneal on days 4, 6, 8, 10

| Compound | solubility in water ([1]; 20° C.) | in vivo half-life [2] | Change (min) in the time stayed in non-preferred compartment [3, 4] | Change (min) in the time stayed in preferred compartment [3, 4] | Change (min) in the time stayed in non-preferred compartment [3, 5] | Change (min) in the time stayed in preferred compartment [3, 5] | Change (min) in the time stayed in non-preferred compartment [3, 6] | Change (min) in the time stayed in preferred compartment [3, 6] | psychological dependence on tramadol (FIG. 9) ([3]; tramadol 37.5 mg (Comparative Example 5) or 100 mg (Comparative Example 6) compared to Test Example 2 (tramadol 25 mg) and Comparative Example 4 (tramadol 0 mg)) | solubility in water [1] | blood half-life ([2]; in vivo) |
| --- | --- | --- | --- | --- | --- | --- | --- | --- | --- | --- | --- |
| Cc1ccc(-c2cc(C(F)(F)F)nn2-c2ccc(S(N)(=O)=O)cc2)cc1 [Celecoxib] | 3.3 µg/mL (≈ 8.65 µM) | about 11 hours | – | – | – | – | – | – | – | – | – |
| COc1cccc(C2(O)CCCCC2CN(C)C)c1 (centres unmarked) [tramadol] | – | – | 1.3 min | -0.17 min | 2.8 min | 2.20 min | 3.3 min | 3.03 min | greatly increased | very soluble in water | about 6 hours |
